Data set [1] deals with mcr-1 plasmid containing E. coli, K. pneumoniae, and A. baumannii. Put plainly: Colistin potentiation stated for all three mcr-1 strains together.
The next data set concerns K. pneumoniae B9. Description: Colistin potentiation, chromosomally colistin resistant K. pneumoniae B9. Type of data set: cell-based. The settings on record: K. pneumoniae B9. From the text:
(§1) Broth microdilution method for antibiotic potentiation.

The next data set has as its system A. baumannii 4106. Description: Colistin potentiation, chromosomally colistin resistant A. baumannii 4106. Type of data set: cell-based.
Description: as §1

A further data set has as its system 4T1 cells. Put plainly: MTT cell viability assay. The class given is cell-based, mouse. The note with it: 4T1 cells, 18 h, concentration giving 50% cell viability; for CT50, Compound + colistin: with 1 μg/mL colistin; for CT50, Compound alone: without colistin. As to the method: MTT Cell Viability Assay. 4T1 cells (ATCC Manassas, Va.) were plated at a density of 1×10^4 cells/well in 96-well plates. (Roswell Park Memorial Institute Media 1640, Gibco, Gaithersburg, Md.) supplemented with 10% Fetal Bovine Serum (Gibco), 2 mM GlutaMAX (Gibco) and 50 μM 2-mercaptoethanol (Sigma Aldrich St. Louis, Mo.) and incubated at 37° C. under a 5% CO2 atmosphere in the dark for 18 h. Cell cultures were treated with serial dilutions of compounds in the presence or absence of 1 μg/mL colistin (3 replicates per condition) and incubated for an additional 18 hours. The following control conditions were used: media only (blank), 1% Triton X100 (0% cell viability), 0.5% DMSO (100% cell viability). Each condition was then treated with 10% volume of a 5 mg/mL solution of 3-(4,5-dimethylthiazol-2-yl)-2,5-diphenyltetrazolium bromide (MTT) (Sigma Aldrich) in sterile filtered 1× phosphate buffered saline (PBS) and incubated for 2 h. at 37° C. in 5% CO2, after which the media was aspirated and the resulting formazan crystals were resuspended in 100 μL acidified (4 mM HCl) isopropanol. The 96-well plate was then read at 540 nm on a FLUOstar Optima (BMG Labtech Cary, N.C.) microplate reader. Cell viability was calculated as a percentage using the two previously mentioned controls.
On the technique in general: Tetrazolium assays rely on reduction of a dye to a coloured formazan, in cell work by metabolically active cells.

The next data set has as its system A. baumannii 3941. Description: Colistin potentiation, chromosomally colistin resistant A. baumannii 3941. Type of data set: cell-based.
Description: as §1

The subject of another data set is K. pneumoniae C3. Put plainly: Colistin potentiation, chromosomally colistin resistant K. pneumoniae C3. The class given is cell-based.
Description: as §1

Data set [2] relates to several MDR Gram-negative bacterial strains. The note with it: cited from earlier work.
Where [3] appears, read: adjuvant at 15 μM, susceptibility breakpoint 2 μg/mL.

SMILES strings stand for the structures.

The values that follow come from US20230131376A1, “ADJUVANT-ANTIBIOTIC COMBINATION AGAINST GRAM-NEGATIVE BACTERIA” (University of Notre Dame du Lac, priority 2020, published 2023).

Turning to `O=C(NCCc1c[nH]c2ccccc12)Nc1cc(Cl)c(Br)c(Cl)c1` [Compound 8e, 1-(2-(1H-indol-3-yl)ethyl)-3-(4-bromo-3,5-dichlorophenyl)urea], the “colistin MIC with adjuvant, all three mcr-1 strains” value in data set [1] (setting [3]) is on record as “lowered the colistin MIC to the susceptibility breakpoint”.
`O=C(NCCc1c[nH]c2ccccc12)Nc1cc(Br)cc(Br)c1` [Compound 8b, 1-(2-(1H-indol-3-yl)ethyl)-3-(3,5-dibromophenyl)urea]: the “colistin MIC with adjuvant” value was determined as 4 µg/mL with K. pneumoniae B9 (adjuvant at 7.5 μM); 32 µg/mL in the data set with K. pneumoniae B9 (adjuvant at 8 μM); 1 µg/mL with K. pneumoniae B9 (adjuvant at 10 μM); 0.5 µg/mL with K. pneumoniae B9 (adjuvant at 15 μM); 8 µg/mL with A. baumannii 4106 (adjuvant at 10 μM); 4 µg/mL with A. baumannii 4106 (adjuvant at 15 μM). For the same compound, the “colistin MIC with adjuvant” value in the data set on A. baumannii 4106 (adjuvant at 20 μM) is 4 µg/mL; in the data set on A. baumannii 3941 (adjuvant at 10 μM), 16 µg/mL; in the data set with A. baumannii 3941 (adjuvant at 15 μM), 8 µg/mL; in the data set on A. baumannii 3941 (adjuvant at 20 μM), 8 µg/mL; with K. pneumoniae C3 (adjuvant at 10 μM), 8 µg/mL; in the data set with K. pneumoniae C3 (adjuvant at 15 μM) it was 4 µg/mL. In the data set on K. pneumoniae C3 (adjuvant at 20 μM), the “colistin MIC with adjuvant” value amounted to 2 µg/mL. For the same compound, the “CT50, Compound + colistin” value with 4T1 cells was found to be 64.2 µM. The “CT50, Compound alone” value in the data set on 4T1 cells amounted to 86.2 µM. The “colistin MIC with adjuvant, all three mcr-1 strains” value in data set [1] (setting [3]) is on record as “lowered the colistin MIC to the susceptibility breakpoint”.
In the case of `CC(C)n1cc(-c2cccc(NC(=O)Nc3cc(Br)cc(Br)c3)c2)nc1N` [Compound 3], the “ability to potentiate colistin activity” value in data set [2] was “demonstrated the ability to potentiate colistin activity”.
Take `O=C(NCCc1c[nH]c2ccccc12)Nc1ccc(Cl)c(Cl)c1` [Compound 8d, 1-(2-(1H-indol-3-yl)ethyl)-3-(3,4-dichlorophenyl)urea]: in the data set on 4T1 cells, the “CT50, Compound + colistin” value was 104.8 µM and the “CT50, Compound alone” value was determined as 117.3 µM.
Turning to `CCNc1nccc(-c2c[nH]c3ccc(Br)cc23)n1` [Compound 4], in data set [2], the “ability to potentiate colistin activity” value was “demonstrated the ability to potentiate colistin activity”.
`O=C(NCCc1c[nH]c2ccccc12)c1ccc(Cl)c(Cl)c1` [Compound 1d, N-(2-(1H-indol-3-yl)ethyl)-3,4-dichlorobenzamide]: in data set [1] (adjuvant at 50 μM), the “colistin MIC with adjuvant, all three mcr-1 strains” value came out at 2 µg/mL and the “fold reduction of colistin MIC, all mcr-1 containing strains” value is 4-8 fold.
On to `O=C(NCCc1c[nH]c2ccc(Br)cc12)Nc1ccc(Cl)c(Cl)c1` [Compound 9d, 1-(2-(5-bromo-1H-indol-3-yl)ethyl)-3-(3,4-dichlorophenyl)urea], for which the “colistin MIC with adjuvant” value in the data set on K. pneumoniae B9 (adjuvant at 5 μM) is 8 µg/mL; in the data set on K. pneumoniae B9 (adjuvant at 7.5 μM), 2 µg/mL; with K. pneumoniae B9 (adjuvant at 10 μM), 1 µg/mL; with K. pneumoniae B9 (adjuvant at 15 μM) it was 0.5 µg/mL; with A. baumannii 4106 (adjuvant at 10 μM), 4 µg/mL; with A. baumannii 4106 (adjuvant at 15 μM) it was 2 µg/mL. The “colistin MIC with adjuvant” value was 2 µg/mL in the data set with A. baumannii 4106 (adjuvant at 20 μM); 8 µg/mL in the data set on A. baumannii 3941 (adjuvant at 10 μM); 4 µg/mL with A. baumannii 3941 (adjuvant at 15 μM); 2 µg/mL in the data set with A. baumannii 3941 (adjuvant at 20 μM); 4 µg/mL in the data set with K. pneumoniae C3 (adjuvant at 10 μM); 2 µg/mL in the data set with K. pneumoniae C3 (adjuvant at 15 μM). For the same compound, in the data set on K. pneumoniae C3 (adjuvant at 20 μM), the “colistin MIC with adjuvant” value was found to be 1 µg/mL. In addition, the “CT50, Compound + colistin” value with 4T1 cells turned out to be 84.6 µM. Besides, the “CT50, Compound alone” value in the data set on 4T1 cells turned out to be 125.5 µM.
Consider `CC(C)n1cc(-c2cccc(NC(=O)Nc3cc(Cl)c(Br)c(Cl)c3)c2)nc1N` [Compound 14, reference compound], for which, in the data set on 4T1 cells, the “CT50, Compound + colistin” value is 15.6 µM and the “CT50, Compound alone” value was found to be 23.2 µM.
As to `O=C(NCCc1c[nH]c2ccccc12)c1cc(Cl)c(Cl)[nH]1` [Compound 2], the “ability to potentiate colistin activity” value in data set [2] is listed as “demonstrated the ability to potentiate colistin activity”.
For the compound `O=C(NCCc1c[nH]c2ccccc12)Nc1cc(C(F)(F)F)cc(C(F)(F)F)c1` [Compound 8c, 1-(2-(1H-indol-3-yl)ethyl)-3-(3,5-bis(trifluoromethyl)phenyl)urea], in the data set on 4T1 cells, the “CT50, Compound + colistin” value worked out at 61.8 µM and the “CT50, Compound alone” value was 60.5 µM. Further, the “colistin MIC with adjuvant, all three mcr-1 strains” value in data set [1] (setting [3]) is given as “lowered the colistin MIC to the susceptibility breakpoint”.
